This note sets out measurements from ChEMBL document CHEMBL1201862, “PubChem BioAssay data set” (2004).

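Briefly, cells in 96-well plates were exposed to five compound concentrations for 48 h, and endpoints were estimated by linear interpolation. At the GI50, growth is halved.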 Activity calls are given as the source filed them. Cut-off read from the data, not from the text of the source: active = GI50 up to about 1.1 µM and inactive = higher. Where a SMILES comes first, the peptide text is derived from it. Residues, ends and D or L forms follow the SMILES beside them. The star is where a group is joined. *: point of attachment. Ethyl(2-NMe3+) = C[N+](C)(C)CC*; Cbz = O=C(OCc1ccccc1)*; Boc = CC(C)(C)OC(=O)*; tBu = CC(C)(C)* Where only a bound is given, the exact number is not on record here.

Test systems include 786-0; A498; CAKI-1; DU-145; HCC 2998; HCT-15; Hs-578T; K562; MDA-MB-435; MOLT-4; Malme-3M; NCI-H226; NCI-H522; OVCAR-3; OVCAR-8; PC-3; SF-268; SF-539; SK-MEL-2; TK-10.
Holding throughout (assay): NCI anticancer screen, dose series, 48 h

Consider `CCOC(=O)C1=C(OS(=O)(=O)C(F)(F)F)CCCC1`, for which the GI50 is > 100 µM (inactive) in the assay on 786-0; > 100 µM (inactive) in the assay with A498; > 100 µM (inactive) in the assay with CAKI-1; > 100 µM (inactive) with DU-145; > 100 µM (inactive) in the assay with HCC 2998; more than 100 µM in the assay with HCT-15. For the same compound, the GI50 in the assay with Hs-578T, in the assay with K562, with MDA-MB-435, in the assay on MOLT-4, in the assay with Malme-3M and in the assay with NCI-H226 was > 100 µM (inactive) each time. Further, the GI50 in the assay with NCI-H522, with OVCAR-3, in the assay with OVCAR-8, in the assay with PC-3, in the assay with SF-268 and in the assay on SF-539 was > 100 µM (inactive) throughout. Also, the GI50 in the assay on SK-MEL-2 and in the assay with TK-10 was > 100 µM (inactive) throughout.
On to `O[C@@]1(C#Cc2ccc3c(c2)OCO3)CCC[C@H]1NCc1ccccc1`, for which the GI50 with 786-0 is 17.5 µM (inactive); with A498 it was 28.6 µM (inactive); in the assay on CAKI-1, 28.4 µM (inactive); in the assay with DU-145, 47.2 µM (inactive); in the assay on HCC 2998, 17.1 µM (inactive); with HCT-15 it was 19.1 µM. Also, the GI50 with Hs-578T was 21.2 µM (inactive); in the assay with K562 it was 18.7 µM (inactive); in the assay on MDA-MB-435, 21 µM (inactive); in the assay with MOLT-4 it was 15.9 µM (inactive); in the assay with Malme-3M, 15.2 µM (inactive); in the assay with NCI-H226, 15.9 µM (inactive). Further, the GI50 with NCI-H522 was 15.3 µM (inactive); in the assay on OVCAR-3 it was 20.4 µM (inactive); with OVCAR-8, 22.8 µM (inactive); with PC-3, 19.2 µM (inactive); in the assay with SF-268 it was 36.7 µM (inactive); in the assay with SF-539 it was 16 µM (inactive). For the same compound, the GI50 is 16.2 µM (inactive) with SK-MEL-2 and 27.7 µM (inactive) with TK-10.
As for `CSc1ccccc1NC1=NCCO1`, the GI50 in the assay with 786-0 is > 100 µM (inactive); with A498, > 100 µM (inactive); in the assay with CAKI-1 it was > 100 µM (inactive); with DU-145, > 100 µM (inactive); in the assay with HCC 2998 it was > 100 µM (inactive); with HCT-15, more than 100 µM. For the same compound, the GI50 with Hs-578T, in the assay on K562, in the assay on MDA-MB-435, with MOLT-4, with Malme-3M and in the assay on NCI-H226 was > 100 µM (inactive) throughout. Further, the GI50 with NCI-H522, in the assay on OVCAR-3, with OVCAR-8, with PC-3, with SF-268 and with SF-539 was > 100 µM (inactive) each time. The GI50 in the assay on SK-MEL-2 and with TK-10 was > 100 µM (inactive) in each case.
For the compound `CC1OC(OC2C(O[C@H]3CC[C@@]4(C)C(=CC[C@H]5[C@@H]6C[C@@H]7O[C@]8(CC[C@@H](C)CO8)[C@@H](C)[C@@H]7[C@@]6(C)CC[C@@H]54)C3)OC(CO)C(OC3OC(CO)C(O)C3O)C2O)C(O)C(O)C1O` (stereo not given in full), the GI50 with 786-0 is 0.673 µM (active); with A498, 0.881 µM (active); in the assay on CAKI-1, 0.867 µM (active); with DU-145, 0.984 µM (active); in the assay with HCC 2998, 0.366 µM (active); in the assay on HCT-15, 0.895 µM. In addition, the GI50 was 0.805 µM (active) with Hs-578T; 1.23 µM (inactive) with K562; 0.869 µM (active) in the assay on MDA-MB-435; 0.785 µM (active) in the assay on MOLT-4; 0.877 µM (active) in the assay on Malme-3M; 0.867 µM (active) with NCI-H226. In addition, the GI50 was 0.995 µM (active) in the assay on NCI-H522; 0.918 µM (active) with OVCAR-3; 0.535 µM (active) in the assay with OVCAR-8; 0.776 µM (active) with PC-3; 0.841 µM (active) with SF-268; 0.644 µM (active) with SF-539. Moreover, the GI50 with SK-MEL-2 is 1.01 µM (active); with TK-10 it was 0.989 µM (active).
With `COC(=O)C(Cc1ccc2c(c1)CCCC2)Cc1cc2c(cc1C(O)OC)CCC2` (stereo not given), the GI50 was 33.3 µM (inactive) in the assay with 786-0; > 100 µM (inactive) in the assay on A498; > 100 µM (inactive) in the assay on CAKI-1; > 100 µM (inactive) in the assay on DU-145; 57.9 µM (inactive) in the assay on HCC 2998; 33.7 µM with HCT-15. The GI50 in the assay with Hs-578T is 57.9 µM (inactive); in the assay on K562, 35.1 µM (inactive); in the assay on MDA-MB-435, 38.2 µM (inactive); with MOLT-4, 58.9 µM (inactive); with Malme-3M, 38.1 µM (inactive); with NCI-H226, > 100 µM (inactive). In addition, the GI50 with NCI-H522 is 50.1 µM (inactive); in the assay on OVCAR-3, 89.7 µM (inactive); in the assay with OVCAR-8, > 100 µM (inactive); in the assay with PC-3 it was 19.5 µM (inactive); in the assay on SF-268, 49.9 µM (inactive); in the assay on SF-539, 39.1 µM (inactive). Moreover, the GI50 was > 100 µM (inactive) with SK-MEL-2 and 62.2 µM (inactive) with TK-10.
Take `O=[N+]([O-])/C(Cl)=C(\Nc1ccccc1)C(Cl)=C(Cl)Cl`: the GI50 with 786-0 is 27.5 µM (inactive); in the assay with A498 it was 30.8 µM (inactive); in the assay on CAKI-1, 48.3 µM (inactive); with DU-145, 36.8 µM (inactive); in the assay with HCC 2998, 37.5 µM (inactive); in the assay on HCT-15, 25.4 µM. Moreover, the GI50 in the assay with Hs-578T was 34.3 µM (inactive); in the assay on K562, 25 µM (inactive); with MDA-MB-435, 18.5 µM (inactive); in the assay with MOLT-4 it was 33.3 µM (inactive); in the assay with Malme-3M, 18 µM (inactive); with NCI-H226, 26.5 µM (inactive). The GI50 was 42.7 µM (inactive) with NCI-H522; 18.2 µM (inactive) in the assay with OVCAR-3; 23.5 µM (inactive) with OVCAR-8; 38.3 µM (inactive) with PC-3; 32.1 µM (inactive) in the assay on SF-268; 27.9 µM (inactive) with SF-539. Also, the GI50 was 28.8 µM (inactive) in the assay on SK-MEL-2 and 56.6 µM (inactive) with TK-10.
For `COC(=O)[C@H](Cc1ccccc1)NC(=O)c1ccc(CNC(=O)/C=C/c2csc(-c3ccccc3)n2)cc1`, the GI50 in the assay on 786-0 was 4.88 µM (inactive); in the assay on A498 it was 16.1 µM (inactive); in the assay with CAKI-1, 7.82 µM (inactive); in the assay on DU-145, 7.03 µM (inactive); in the assay on HCC 2998, 3.91 µM (inactive); with HCT-15 it was 7.35 µM. The GI50 in the assay with Hs-578T is 3.21 µM (inactive); with K562, 1.93 µM (inactive); with MDA-MB-435, 2.83 µM (inactive); in the assay on MOLT-4 it was 1.75 µM (inactive); in the assay with Malme-3M, 3.24 µM (inactive); in the assay on NCI-H226, 46 µM (inactive). For the same compound, the GI50 in the assay on NCI-H522 is 3.24 µM (inactive); with OVCAR-3, 5.33 µM (inactive); in the assay on OVCAR-8, 11.1 µM (inactive); with PC-3 it was 6.87 µM (inactive); in the assay with SF-268, 7.6 µM (inactive); in the assay on SF-539 it was 2.04 µM (inactive). The GI50 was 2.81 µM (inactive) in the assay on SK-MEL-2 and 19.3 µM (inactive) with TK-10.
In the case of `CC(NC(=O)C(Cc1ccc(OCC[N+](C)(C)C)cc1)NC(=O)OC(C)(C)C)C(=O)NC(Cc1ccccc1)C(=O)NCC(N)=O` (stereo not given) (Boc-Y(Ethyl(2-NMe3+))AFG-NH2; configuration not given here), the GI50 is 10.4 µM (inactive) in the assay on 786-0; 13.4 µM (inactive) in the assay with A498; 87.1 µM (inactive) in the assay on CAKI-1; 36.1 µM (inactive) with DU-145; 16.5 µM (inactive) with HCC 2998; more than 100 µM with HCT-15. The GI50 was 22.4 µM (inactive) in the assay with Hs-578T; > 100 µM (inactive) in the assay on K562; > 100 µM (inactive) with MDA-MB-435; > 100 µM (inactive) in the assay with MOLT-4; 20.9 µM (inactive) in the assay on Malme-3M; 22.7 µM (inactive) in the assay on NCI-H226. The GI50 was 36.9 µM (inactive) in the assay with NCI-H522; 18.2 µM (inactive) in the assay with OVCAR-3; 12 µM (inactive) in the assay on OVCAR-8; > 100 µM (inactive) in the assay on PC-3; 10.1 µM (inactive) in the assay with SF-268; 11.4 µM (inactive) with SF-539. In addition, the figures for the GI50 in the assay with SK-MEL-2 and with TK-10 were 11.9 µM (inactive) and 11.8 µM (inactive), respectively.
As for `CC(OC(C)(C)C)C(NC(=O)C(CCCCNC(=O)OC(C)(C)C)NC(=O)C(Cc1c[nH]c2ccccc12)NC(=O)C(Cc1ccccc1)NC(=O)OCc1ccccc1)C(=O)NC(Cc1ccccc1)C(=O)O` (stereo not given) (Cbz-FWK(Boc)T(tBu)F-OH; configuration not given here), the GI50 is > 100 µM (inactive) in the assay on 786-0; > 100 µM (inactive) with A498; > 100 µM (inactive) with CAKI-1; 61.1 µM (inactive) in the assay with DU-145; 30.8 µM (inactive) in the assay with HCC 2998; 73.6 µM in the assay with HCT-15. Moreover, the GI50 in the assay on Hs-578T is 0.9 µM (active); in the assay on K562, 28.8 µM (inactive); in the assay on MDA-MB-435, 40.5 µM (inactive); with MOLT-4 it was 28.1 µM (inactive); in the assay with Malme-3M, > 100 µM (inactive); in the assay with NCI-H226, 37.3 µM (inactive). Also, the GI50 is 27.9 µM (inactive) with NCI-H522; 32.1 µM (inactive) with OVCAR-3; 95.1 µM (inactive) in the assay with OVCAR-8; 34.8 µM (inactive) in the assay with PC-3; 45.7 µM (inactive) with SF-268; 31.8 µM (inactive) in the assay with SF-539. Further, the GI50 in the assay with SK-MEL-2 is 41.7 µM (inactive); in the assay on TK-10 it was > 100 µM (inactive).
